The text below walks through data of BindingDB's records for doi:10.1016/s0960-894x(00)00323-1 (The University of Newcastle, 2000).

This experiment deals with Protein phosphatase 1 catalytic subunit (PP1). Nature of the experiment: Inhibitory activity against recombinant Protein phosphatase 1.

A word on the IC50: it is the midpoint of a concentration-inhibition curve.

SMILES strings stand for the structures.

As for `COC1OC(=O)[C@H]2[C@@H]1[C@@H]1CC[C@H]2O1` (stereo partly drawn) [(1R,2S,6R,7S)-5-Methoxy-4,10-dioxa-tricyclo[5.2.1.0*2,6*]decan-3-one], the IC50 was > 1000 µM.
Regarding `CCOC(=O)C1C(C(=O)O)[C@@H]2CC[C@H]1O2` (stereo partly drawn) [(1R,4S)-7-Oxa-bicyclo[2.2.1]heptane-2,3-dicarboxylic acid monoethyl ester], the IC50 came to 2.96 µM.
